We go through nine compounds from ChEMBL document CHEMBL2074285, “Characterization of the drug resistance and transport properties of multidrug resistance protein 6 (MRP6, ABCC6)” (Cancer Res, 2002).

Numbered stars: 1 amine (or outer) side, 2 acyl side, 3 side chain; on linkers, the order of the positions; unused ones are H or OH. Bridge positions count the residues as written; N and C are the ends. Square brackets hold non-standard residues; d marks the D form. Peptide text beside a SMILES is read from it. I, II: the chains in the order shown. Actinocin(9to1) = Cc1c2oc3c(C)ccc(C(=O)[*:1])c3nc-2c(C(=O)[*:2])c(N)c1=O; NMeV = CN[C@H](C(=O)O)C(C)C; Sar = CNCC(=O)O

T1 sequence (O95255 whole entry): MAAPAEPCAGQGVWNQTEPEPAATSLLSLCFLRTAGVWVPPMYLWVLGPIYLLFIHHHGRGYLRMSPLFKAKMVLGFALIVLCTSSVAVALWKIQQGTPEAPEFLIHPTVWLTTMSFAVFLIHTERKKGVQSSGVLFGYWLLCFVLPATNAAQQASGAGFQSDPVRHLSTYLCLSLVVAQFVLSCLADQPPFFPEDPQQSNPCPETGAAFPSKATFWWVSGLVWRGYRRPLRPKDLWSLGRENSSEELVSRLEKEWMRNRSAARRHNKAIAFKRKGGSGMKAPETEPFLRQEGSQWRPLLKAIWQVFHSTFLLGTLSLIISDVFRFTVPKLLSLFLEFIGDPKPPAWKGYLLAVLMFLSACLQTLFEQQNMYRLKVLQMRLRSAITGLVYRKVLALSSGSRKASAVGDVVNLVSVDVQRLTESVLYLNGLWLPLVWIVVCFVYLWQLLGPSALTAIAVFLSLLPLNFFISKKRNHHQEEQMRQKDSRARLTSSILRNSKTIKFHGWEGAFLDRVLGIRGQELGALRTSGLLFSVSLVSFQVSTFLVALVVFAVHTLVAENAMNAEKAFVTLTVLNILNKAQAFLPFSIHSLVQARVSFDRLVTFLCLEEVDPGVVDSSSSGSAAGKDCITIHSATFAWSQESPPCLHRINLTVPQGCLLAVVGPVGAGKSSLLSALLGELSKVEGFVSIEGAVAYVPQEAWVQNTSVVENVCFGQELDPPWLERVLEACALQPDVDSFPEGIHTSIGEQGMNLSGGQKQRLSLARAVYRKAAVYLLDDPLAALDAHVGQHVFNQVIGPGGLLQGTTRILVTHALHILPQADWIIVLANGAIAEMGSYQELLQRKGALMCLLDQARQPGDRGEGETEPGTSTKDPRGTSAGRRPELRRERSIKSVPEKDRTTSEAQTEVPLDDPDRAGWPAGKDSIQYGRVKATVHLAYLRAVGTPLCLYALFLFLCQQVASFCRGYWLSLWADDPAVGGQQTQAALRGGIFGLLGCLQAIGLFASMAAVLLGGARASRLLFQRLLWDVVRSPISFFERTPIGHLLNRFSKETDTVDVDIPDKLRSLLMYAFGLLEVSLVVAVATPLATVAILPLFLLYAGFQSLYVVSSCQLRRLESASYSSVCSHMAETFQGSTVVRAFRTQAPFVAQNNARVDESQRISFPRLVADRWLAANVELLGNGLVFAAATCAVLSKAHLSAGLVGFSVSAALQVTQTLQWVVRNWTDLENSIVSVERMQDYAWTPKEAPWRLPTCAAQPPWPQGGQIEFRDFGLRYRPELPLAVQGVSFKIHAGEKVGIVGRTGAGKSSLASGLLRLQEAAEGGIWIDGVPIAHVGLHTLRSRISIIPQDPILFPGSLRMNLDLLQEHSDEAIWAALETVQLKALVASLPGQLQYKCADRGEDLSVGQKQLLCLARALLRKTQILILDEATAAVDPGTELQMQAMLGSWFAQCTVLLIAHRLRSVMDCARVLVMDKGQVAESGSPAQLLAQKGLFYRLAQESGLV

One data set concerns the target T1, ATP-binding cassette sub-family C member 6 (Homo sapiens, UniProt O95255). The data set can be described thus: TP_TRANSPORTER: drug resistance in MRP6-expressing CHO cells. In kind it is functional, cell-based. The conditions noted are these: hamster.
Consider `Cc1c2oc3c(C)ccc(C(=O)N[C@@H]4C(=O)N[C@H](C(C)C)C(=O)N5CCC[C@H]5C(=O)N(C)CC(=O)N(C)[C@@H](C(C)C)C(=O)O[C@@H]4C)c3nc-2c(C(=O)N[C@@H]2C(=O)N[C@H](C(C)C)C(=O)N3CCC[C@H]3C(=O)N(C)CC(=O)N(C)[C@@H](C(C)C)C(=O)O[C@@H]2C)c(N)c1=O` [DACTINOMYCIN] (I: T[dV]P[Sar][NMeV] / II: T[dV]P[Sar][NMeV]; ester I:1-I:C, II:1-II:C; linker I:N-II:N via Actinocin(9to1)), for which the Activity result is “substrate []”.
The same measure, in the same setting: to `COc1cccc2c1C(=O)c1c(O)c3c(c(O)c1C2=O)C[C@@](O)(C(C)=O)C[C@@H]3O[C@H]1C[C@H](N)[C@H](O)[C@H](C)O1` [DAUNORUBICIN] belongs “substrate []”.
`COc1cccc2c1C(=O)c1c(O)c3c(c(O)c1C2=O)C[C@@](O)(C(=O)CO)C[C@@H]3O[C@H]1C[C@H](N)[C@H](O)[C@H](C)O1` [DOXORUBICIN]: the Activity result was “substrate []”.
Consider `COc1cc([C@@H]2c3cc4c(cc3[C@@H](O[C@@H]3O[C@@H]5CO[C@@H](C)O[C@H]5[C@H](O)[C@H]3O)[C@H]3COC(=O)[C@H]23)OCO4)cc(OC)c1O` [ETOPOSIDE], for which the Activity entry is “substrate []”.
Take `COc1cc([C@@H]2c3cc4c(cc3[C@@H](O[C@@H]3O[C@@H]5CO[C@@H](c6cccs6)O[C@H]5[C@H](O)[C@H]3O)[C@H]3COC(=O)[C@H]23)OCO4)cc(OC)c1O` [TENIPOSIDE]: the Activity entry is “substrate []”.
Turning to CISPLATIN, the Activity entry is “substrate []”.

A further data set has as its target T1, ATP-binding cassette sub-family C member 6. The experiment in a line: TP_TRANSPORTER: uptake in membrane vesicle from MRP6-expressing CHO cells. The data set is classed as functional, cell membranes. The conditions noted are these: hamster.
Regarding `N[C@@H](CCC(=O)N[C@H](CSc1ccc([N+](=O)[O-])cc1[N+](=O)[O-])C(=O)NCC(=O)O)C(=O)O`, the Activity result is “substrate [+]”.
Still for that read-out and setting: to `CC(C)C[C@@H]1NC(=O)[C@@H](C(C)C)NC(=O)[C@@H]2CCCN2C(=O)[C@@H](CC(=O)O)NC(=O)[C@@H](Cc2c[nH]c3ccccc23)NC1=O` [BQ-123] (HELM PEPTIDE1{L.[dW].[dD].P.[dV]}$PEPTIDE1,PEPTIDE1,1:R1-5:R2$$$V2.0) belongs “substrate [+]”; to `CCCCC/C=C\C\C=C/C=C/C=C/[C@@H](SC[C@@H](NC(=O)CC[C@H](N)C(=O)O)C(=O)NCC(=O)O)[C@@H](O)CCCC(=O)O` [LEUKOTRIEN C4], “substrate [+]”.
